Assays:
[1] = tested on: MIA-PACA-2 cells; test: Viability of PDAC MIA-PACA-2 cells treated alone and in combination for 5 days; synergy score by SynergyFinder.org; type: cell-based; details: MIA-PACA-2, single agent, 5 days (FIG. 2)
Excerpt: Synergy scores can be interpreted as the average excess response due to drug interactions. Synergy scores close to 0 give limited confidence in synergy or antagonism. So, when the synergy scores are: less than −10, the interaction between two drugs is likely to be antagonistic. From −10 to 10, the interaction between two drugs is likely to be additive. Greater than 10, the interaction between two drugs is likely to be synergistic.
Pancreatic ductal adenocarcinoma (PDAC) MIA-PACA-2 cells were treated with increasing concentrations of Olaparib and the Omomyc peptide sequence SEQ ID NO: 4 alone and in combination, for 5 days.
Then synergy score was calculated by SynergyFinder.org after having carried out 3 biological replicates as described above.

[2] = tested on: SUM149 cell-derived xenograft (CDX); test: SUM149 cell-derived xenograft (CDX) model, orthotopic in mammary fat-pad, tumour growth; type: in vivo; details: SUM149 CDX mice, 4 weeks; Omomyc 50 mg/kg intravenous once a week; Olaparib 50 mg/kg oral gavage 6 times a week; preliminary
Description: SUM149 cell-derived xenograft (CDX) model mice were used for in vivo studies. Each mouse was inoculated orthotopically in the mammary fat-pad with 5 million cells. As the tumours reached 100 mm^3, mice were randomised in 4 treatment groups. Specifically, mice were treated with Omomyc once a week (50 mg/kg, intravenous), with Olaparib 6 times a week (50 mg/kg oral gavage), with the combination of the 2 drugs (combo) or with vehicle alone for 4 weeks. Relative volume was calculated as a percentage of tumour growth from the day of randomization and beginning of treatments. At end-point the average of the groups were respectively: vehicle 901.8%, Omomyc 663.6%, Olaparib 623.6%, and combination 335.8%.

## O=C(c1cc(Cc2n[nH]c(=O)c3ccccc23)ccc1F)N1CCN(C(=O)C2CC2)CC1 [Olaparib, reference compound]
[1]
  sensitivity of the cell line to the single agent (viability): particularly resistant
[2]
  Relative volume, percentage of tumour growth from the day of randomization (group average at end-point): 623.6%
